Assay results taken from US20250049970A1, “DLL3 TARGETING PEPTIDES AND CONSTRUCTS THEREOF” (MARIANA ONCOLOGY INC., priority 2023, published 2025).
*1 amine or outer side, *2 acyl side, *3 side chain or, on linkers, in order; H or OH if unused. Where a SMILES comes first, the peptide text is derived from it. Bridges are numbered along the chain shown (N, C = ends). [ ]: non-standard residue; d: D form. The star is where a group is joined. Ala(piperidin-4-yl) = O=C([C@H](CC1CCN([*:3])CC1)N[*:1])[*:2]; DOTA = O=C(O)CN1CCN(CC(=O)O)CCN(CC(=O)*)CCN(CC(=O)O)CC1; 2Nal = N[C@@H](Cc1ccc2ccccc2c1)C(=O)O; tBuAla = CC(C)(C)C[C@H](N)C(=O)O; Chg = N[C@H](C(=O)O)C1CCCCC1; Tle = CC(C)(C)[C@H](N)C(=O)O

Columns and labels:
[1] = molecular target: T1, DLL3 (Homo sapiens, UniProt Q9NYJ7); experiment: SPR KD, biotinylated human DLL3 on streptavidin chip (Table 8); parameters: biotin (biotinylated); conditions: biotinylated human DLL3 on streptavidin sensor chip, 25° C., 1:1 binding model; read-out: SPR KD
T1 sequence (Q9NYJ7 27-618): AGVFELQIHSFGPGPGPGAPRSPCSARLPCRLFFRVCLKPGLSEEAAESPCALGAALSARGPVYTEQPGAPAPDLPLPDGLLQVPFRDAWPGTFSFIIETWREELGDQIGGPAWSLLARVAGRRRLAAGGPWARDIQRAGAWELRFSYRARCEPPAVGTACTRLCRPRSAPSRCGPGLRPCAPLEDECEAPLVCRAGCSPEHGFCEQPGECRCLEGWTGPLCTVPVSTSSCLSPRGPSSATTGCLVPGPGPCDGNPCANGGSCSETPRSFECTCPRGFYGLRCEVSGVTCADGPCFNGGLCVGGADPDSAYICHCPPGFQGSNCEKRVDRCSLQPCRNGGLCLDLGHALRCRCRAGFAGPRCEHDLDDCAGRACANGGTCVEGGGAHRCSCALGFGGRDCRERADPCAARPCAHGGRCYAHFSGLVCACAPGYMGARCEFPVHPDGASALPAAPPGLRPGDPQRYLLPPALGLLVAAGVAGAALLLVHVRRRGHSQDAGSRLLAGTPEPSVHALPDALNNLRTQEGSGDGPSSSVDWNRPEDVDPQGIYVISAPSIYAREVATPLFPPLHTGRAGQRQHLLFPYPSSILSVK
Excerpt: Biotinylated target ligand human DLL3 was immobilized on a streptavidin sensor chip. A reference surface was set up for nonspecific binding and refractive index changes. […] Sensorgram curves were fitted with 1:1 binding model, and affinity and kinetic parameters were obtained using Biacore Insight evaluation 4.0. software.

[2] = test system: SHP-77 cells; experiment: Cell binding (total uptake) of [177Lu]Lu-labeled peptide, SHP-77 cells; format: cell-based; conditions: 1 h, 37° C.
Protocol: (§1) [^177Lu]LuCl3 was received from venders in HCl solution. For every mCi of [^177Lu]LuCl3 added to the reaction vial (1.5 mL Eppendorf vial), ammonium acetate buffer (0.2 M, pH 4.9, 100 μL, containing 1% w/v ascorbic acid and 6% v/v ethanol) and peptide conjugate (1 nmol; also referred to herein as “chelator-peptides”) was added. The pH of the solution was determined to be approximately 5 by using pH strips. The reaction vial was incubated at 80° C., 700 RPM for 17-20 minutes. A sample from the reaction was analyzed by RP-HPLC using an Agilent Infinity II 1260 HPLC to determine reaction completion and radiochemical purity of [^177Lu]Lu-chelator-peptides. HPLC conditions: Waters XBridge BEH C18 Column, 130A, 3.5 μm, 4.6 mm×250 mm; mobile phase: Solvent A=water (with 0.1% formic acid), solvent B=acetonitrile (with 0.1% formic acid). Gradients: 25-45% B in 10 minutes, 45-65% B in 12 minutes, 65-90% in 6 minutes at a flow rate of 0.5 mL/minutes Required amounts of the product was formulated in 1% PBSA for cell studies.
(§2) The study was conducted using SHP-77, CT26.WT, CT26.DLL3, and HEK293.DLL3 cells (Table 9)
(§3) Adherent cell studies: The cells were cultured in appropriate culture media (20 mL) in tissue culture treated T150 flasks at 37° C. and 5% C02. Adherent cells were detached (60-70% confluent) using 5 mL Versene at 37° C. for 3 minutes. After confirming the viability using countess and count of detached cells using Trypan blue, the cells were centrifuged at 4° C. for 5 minutes (1,000 rpm). The cell pellet obtained was washed once with PBS and resuspended in 1% PBSA to obtain the desired cell concentration (5-25 million cells/mL).
as §3, with “Suspension” for “Adherent”, “CO2.” for “C02. Adherent cells were detached (60-70% confluent) using 5 mL Versene at 37° C. for 3 minutes.”, “viability” for “viability using countess”
(§4) Cell numbers used for the assay were in the range of 5 million cells/condition-25 million cells/condition.
(§5) Total uptake: Cells were incubated with 300 μL (0.8 μCi) of the incubation buffer (containing radiolabeled peptide [^177Lu]Lu-test peptide) for 1 hour at 37° C. (Table 10). Post incubation, the cells were pelleted and washed 2 times using cold PBS+1% BSA. The supernatant and washes were combined and counted together as “unbound fraction” in a gamma counter. The cells were then resuspended in 300 μL of 1% PBS+1% BSA and counted in the gamma counter as “bound fraction”.
(§6) In these Tables, “A” represents % s ≤25; “B” represents 25 <% ≤50; “C” represents % >50.

[3] = test system: SHP-77 cells; experiment: Internalization of [177Lu]Lu-labeled peptide, SHP-77 cells; format: cell-based; conditions: 1 h, 37° C.
Protocol: as §1, §2, §3
as §3, with “Suspension” for “Adherent”, “CO2.” for “C02. Adherent cells were detached (60-70% confluent) using 5 mL Versene at 37° C. for 3 minutes.”, “viability” for “viability using countess”
as §4
(§7) Internalization: The resuspended cells in 300 μL of 1% PBSA and counted in the gamma counter as “bound fraction” were collected in 1.5 mL Eppendorf tube and pelleted. The pelleted cells were incubated with 300 μL of 50 mM Glycine pH=2.5 for 3 minutes and then pelleted discarding the supernatant. This process was repeated one more time. The pelleted cells were washed with 300 μL of cold 1% PBSA and then resuspended in 300 μl 0.3M NaOH. This was counted in the gamma counter as “internalized fraction”.
as §6

[4] = test system: CT26.DLL3 cells; experiment: Internalization of [177Lu]Lu-labeled peptide, CT26.DLL3 cells; format: cell-based; conditions: 1 h, 37° C.
Protocol: as §1, §2, §3, §4, §7, §6

[5] = test system: CT26.DLL3 cells; experiment: Cell binding (total uptake) of [177Lu]Lu-labeled peptide, CT26.DLL3 cells; format: cell-based; conditions: 1 h, 37° C.
Protocol: as §1, §2, §3, §4, §5, §6

[6] = test system: nude mice bearing SHP-77 tumors; experiment: Ex vivo biodistribution of radiolabeled peptides (% IA/g) in nude mice bearing SHP-77 tumors; conditions: [177Lu]Lu labelling, 24 hours post-injection, intravenous
Protocol: Mice were intravenously injected (via the lateral tail vein) with a bolus dose of the radiolabeled peptides for ex vivo biodistribution studies when tumor volumes were in range of 200-400 mm^3 for xenograft mice and when age of the mice was 5-7 weeks for tumor naïve mice studies. To assess the amount of radionuclide injected into individual mice the syringe was assayed in a dose calibrator before and after injection for [^177Lu]Lu-peptide, then the injected dose was determined from the weight difference and concentration of the radionuclide solution.
Mice were euthanized at pre-determined time points and selected tissues were resected and collected into pre-weighed tubes. The tubes were then reweighed post resection, the difference giving the weight of each tissue. Radioactivity in each tissue was measured using a gamma counter. Counts were decay corrected to the time of injection and percentage of injected activity per gram (% IA/g) was calculated for each tissue based on the injected activity into each individual mouse. Injected activity was converted to counts based on the sensitivity of the gamma counter. The counts in tissue were then converted to the percentage of injected activity and this was divided by the mass of tissue to give % IA/g.

CC[C@H](C)[C@H](NC(=O)[C@@H](NC(=O)[C@H](Cc1c[nH]c2ccccc12)NC(C)=O)[C@@H](C)O)C(=O)N[C@H]1CSSC[C@@H](C(=O)N[C@@H](Cc2c[nH]c3ccccc23)C(=O)N2CCC[C@H]2C(N)=O)NC(=O)[C@H](CC(=O)O)NC(=O)[C@H](Cc2cnc[nH]2)NC(=O)[C@H](Cc2ccc3ccccc3c2)NC(=O)[C@H](CC(N)=O)NC(=O)[C@H](CCCCNC(=O)CN2CCN(CC(=O)O)CCN(CC(=O)O)CCN(CC(=O)O)CC2)NC1=O [compound 249, Ac-W-T-I-C(3)-Lys(DOTA)-N-(2Nal)-H-D-C(3)-W-P-CONH2] (Ac-WTICK(DOTA)N[2Nal]HDCWP-NH2; disulfide 4-10) was tested, and the Kd [1] was less than 1 nM, the “% Binding” value [2] was “A (% s ≤25)” and the “% Internalization (out of bound fraction)” value [3] was “B (25 <% ≤50)”. For the same compound, the “% Internalization (out of bound fraction)” value [4] was “B (25 <% ≤50)”, the “% Binding” value [5] was “A (% s ≤25)” and the “kidney uptake (% IA/g)” value [6] was “C (“C” represents 0 < % IA/g ≤ 10 in)”. The “tumor uptake (% IA/g)” value [6] was “A (“A” represents 0 < % IA/g ≤ 5 in tumor)”.

For CC(=O)N[C@@H](Cc1c[nH]c2ccccc12)C(=O)N[C@H](C(=O)N[C@@H](CC(C)(C)C)C(=O)N[C@H]1CSSC[C@@H](C(=O)N[C@@H](Cc2c[nH]c3ccccc23)C(=O)N2CCC[C@H]2C(N)=O)NC(=O)[C@H](CC(=O)O)NC(=O)[C@H](CCCCNC(=O)CN2CCN(CC(=O)O)CCN(CC(=O)O)CCN(CC(=O)O)CC2)NC(=O)[C@H](Cc2ccc3ccccc3c2)NC(=O)[C@H](CC(N)=O)NC(=O)[C@H](CC2CCNCC2)NC1=O)[C@@H](C)O [compound 314, Ac-W-T-(t-Bu-Ala)-C(3)-[3-(4-piperidinyl)-Ala]-N-(2Nal)-Lys(DOTA)-D-C(3)-W-P-CONH2] (Ac-WT[tBuAla]C[Ala(piperidin-4-yl)]N[2Nal]K(DOTA)DCWP-NH2; disulfide 4-10), the Kd [1] was less than 1 nM, the “% Binding” value [2] was “B (25 <% ≤50)” and the “% Internalization (out of bound fraction)” value [3] was “B (25 <% ≤50)”. For the same compound, the “% Internalization (out of bound fraction)” value [4] was “B (25 <% ≤50)”, the “% Binding” value [5] was “B (25 <% ≤50)” and the “kidney uptake (% IA/g)” value [6] was “C (“C” represents 0 < % IA/g ≤ 10 in)”. For the same compound, the “tumor uptake (% IA/g)” value [6] was “A (“A” represents 0 < % IA/g ≤ 5 in tumor)”.

CC(=O)N[C@@H](Cc1c[nH]c2ccccc12)C(=O)N[C@H](C(=O)N[C@H](C(=O)N[C@H]1CSSC[C@@H](C(=O)N[C@@H](Cc2c[nH]c3ccccc23)C(=O)N2CCC[C@H]2C(N)=O)NC(=O)[C@H](CC(=O)O)NC(=O)[C@H](CCCCNC(=O)CN2CCN(CC(=O)O)CCN(CC(=O)O)CCN(CC(=O)O)CC2)NC(=O)[C@H](Cc2ccc3ccccc3c2)NC(=O)[C@H](CC(N)=O)NC(=O)[C@H](CC(N)=O)NC1=O)C(C)(C)C)[C@@H](C)O [compound 315, Ac-W-T-(Tbg)-C(3)-N-N-(2Nal)-Lys(DOTA)-D-C(3)-W-P-CONH2] (Ac-WT[Tle]CNN[2Nal]K(DOTA)DCWP-NH2; disulfide 4-10) was tested, and the Kd [1] was less than 1 nM, the “% Binding” value [2] was “B (25 <% ≤50)” and the “% Internalization (out of bound fraction)” value [3] was “B (25 <% ≤50)”. For the same compound, the “% Internalization (out of bound fraction)” value [4] was “C (% >50)”, the “% Binding” value [5] was “A (% s ≤25)” and the “kidney uptake (% IA/g)” value [6] was “C (“C” represents 0 < % IA/g ≤ 10 in)”. For the same compound, the “tumor uptake (% IA/g)” value [6] was “A (“A” represents 0 < % IA/g ≤ 5 in tumor)”.

For CC(=O)N[C@@H](Cc1c[nH]c2ccccc12)C(=O)N[C@H](C(=O)N[C@H](C(=O)N[C@H]1CSSC[C@@H](C(=O)N[C@@H](Cc2c[nH]c3ccccc23)C(=O)N2CCC[C@H]2C(N)=O)NC(=O)[C@H](CC(=O)O)NC(=O)[C@H](CCCCNC(=O)CN2CCN(CC(=O)O)CCN(CC(=O)O)CCN(CC(=O)O)CC2)NC(=O)[C@H](Cc2ccc3ccccc3c2)NC(=O)[C@H](CC(N)=O)NC(=O)[C@H](CC2CCNCC2)NC1=O)C1CCCCC1)[C@@H](C)O [compound 324, Ac-W-T-(Chg)-C(3)-[3-(4-piperidinyl)-Ala]-N-(2Nal)-Lys(DOTA)-D-C(3)-W-P-CONH2] (Ac-WT[Chg]C[Ala(piperidin-4-yl)]N[2Nal]K(DOTA)DCWP-NH2; disulfide 4-10), the Kd [1] was less than 1 nM, the “% Binding” value [2] was “B (25 <% ≤50)” and the “% Internalization (out of bound fraction)” value [3] was “B (25 <% ≤50)”. For the same compound, the “% Internalization (out of bound fraction)” value [4] was “C (% >50)” and the “% Binding” value [5] was “A (% s ≤25)”.
